Source: paper PMC5854708, “Grass Carp Prolactin Gene: Structural Characterization and Signal Transduction for PACAP-induced Prolactin Promoter Activity” (Scientific Reports, 2018)
Read-outs that look alike come from different tables or passages of the source.

Legend:
[1] = system: cAMP production in αT3-1 cells; conditions: via PAC1 receptors; cited from earlier work
[2] = system: pCREB in grass carp pituitary cells; experiment: Western blot of pCREB in primary grass carp pituitary cells; conditions: oPACAP38, 24 hrs
[3] = system: PRL gene expression in GH4C1 cells; conditions: cited from earlier work
Excerpt: (§1) PACAP and vasoactive intestinal peptide (VIP) are members of the glucagon/secretin peptide family and have been reported to play roles in PRL regulation. […] In contrast to VIP, the biological actions of PACAP on ...

[4] = system: PRL promoter in GH3 cells; conditions: cAMP-dependent; cited from earlier work
Excerpt: as §1

PAC1 receptors = conditions: cited from earlier work
Excerpt: as §1

[5] = system: PRL secretion / PRL gene expression; conditions: mammals, cited from earlier work
Excerpt: as §1

αT3-1 cells, total IP = experiment: Total inositol phosphate measurement in αT3-1 cells; assay type: cell-based, rat (αT3-1 cells, as printed); conditions: myo-[3H] inositol labelled αT3-1 cells, 10 mM LiCl; treatment 45 min; GnRH 1 μM
Method: Figure 7 Functional role of the PLC/IP3/PKC and CaM/CaMK-II cascades in PACAP- and Forskolin-induced PRL promoter activity. αT3-1 cells were transiently transfected with pPRL(−1156).LUC for 6 h by using lipofectamine. After 18 h recovery, the cells were incubated with respective drugs. […] (B) Transfected αT3-1 cells were labeled with 2 μCi/well of myo-[3 H] inositol (DuPont/NEN) in myo-inositol free DMEM medium containing 10% fetal bovine serum and then treated with oPACAP38, VIP, and GnRH for 45 mins. The total IP production were analyzed by detecting the radio-labelled inositol incorporation.
Transfected αT3-1 cells were labeled with 2 μCi/well of myo-[^3H] inositol (DuPont/NEN) in myo-inositol free DMEM medium containing 10% fetal bovine serum. After incubation for 12 hr at 37 °C, myo-[^3H] inositol labeling medium was removed, and αT3-1 cells were washed two times with prewarmed phosphate buffered saline (PBS; pH 7.4) to remove trace of the excessive myo-[^3H] inositol. The transfected cells were then incubated in DMEM containing 0.1% BSA and 10 mM LiCl (to inhibit inositol phosphate degradation) for 20 min at 37 °C before drug treatment. After that, the transfected cells were treated with ovine PACAP38, VIP, and GnRH for 45 min. […] Levels of radioactivity in these samples were measured using a liquid scintillation counter (Beckman).

CREB = conditions: mammalian cell models; via cAMP/PKA, cAMP/ERK and/or PLC/PKC; cited from earlier work
Excerpt: CREB is a member of the leucine zipper transcription factors and well-known to be involved in the activation of cAMP-inducible genes. […] Expression of a dominant-negative form of CREB (MCREB) inhibited basal and Forskolin-induced PRL promoter activity and PRL mRNA expression in rat lactotrophs ...

ERK in αT3–1 cells = conditions: cited from earlier work
Excerpt: (§2) In primary pituitary cells, PRL production induced by PACAP via functional coupling of cAMP/PKA−, Ca^2+/CaM−, and MAPK-dependent cascades. At the transcription level, cAMP/PKA and Ca^2+/CaM/CaM-II pathways are consistently involved in the PACAP regulation on PRL promoter activity. In mammalian cell models, e.g., in human SH-SY5Y neuroblastoma cells, functional coupling of MAPK (e.g., Erk1/2 and P38^MAPK) with cAMP-dependent mechanism has been reported. […] However, in our studies with αT3-1 cells, the inhibitors f ...

ERK in GH3 cells = conditions: cited from earlier work
Excerpt: as §2

pituitary adenylate cyclase-activating peptide [PACAP]
cAMP production [1]: induced | CREB phosphorylation [2]: significantly enhanced CREB phosphorylation | effect on PRL gene expression [3]: stimulatory effects | effect on PRL promoter activity [4]: up-regulate PRL promoter activity | affinity/specificity at PAC1 receptors (PAC1 receptors): specific for PACAP | effect on PRL secretion ([5]; ref 9, 13): stimulatory | effect on PRL secretion ([5]; ref 14): inhibitory | effect on PRL secretion ([5]; ref 15, 16): no effect | total IP level (αT3-1 cells, total IP): enhance total IP level | CREB phosphorylation (CREB): trigger CREB phosphorylation | ERK activation (ERK in αT3–1 cells): stimulates ERK activation | ERK activation (ERK in GH3 cells): triggered ERK activation
